# Target: T1, α7-subtype of nicotinic receptors (Rattus norvegicus, UniProt Q05941)
# T1 construct: Cerebral cortices from male Wistar rats (150-250 g) are homogenised; from tissue; host or cells: rat cerebral cortex membrane homogenate
# Assay: In vitro inhibition of 3H-α-bungarotoxine binding in rat brain
# Conditions: rat cerebral cortex homogenate, 3H-α-bungarotoxine 2 nM, 2 hours at 37° C.
# T1 sequence (Q05941 23-502): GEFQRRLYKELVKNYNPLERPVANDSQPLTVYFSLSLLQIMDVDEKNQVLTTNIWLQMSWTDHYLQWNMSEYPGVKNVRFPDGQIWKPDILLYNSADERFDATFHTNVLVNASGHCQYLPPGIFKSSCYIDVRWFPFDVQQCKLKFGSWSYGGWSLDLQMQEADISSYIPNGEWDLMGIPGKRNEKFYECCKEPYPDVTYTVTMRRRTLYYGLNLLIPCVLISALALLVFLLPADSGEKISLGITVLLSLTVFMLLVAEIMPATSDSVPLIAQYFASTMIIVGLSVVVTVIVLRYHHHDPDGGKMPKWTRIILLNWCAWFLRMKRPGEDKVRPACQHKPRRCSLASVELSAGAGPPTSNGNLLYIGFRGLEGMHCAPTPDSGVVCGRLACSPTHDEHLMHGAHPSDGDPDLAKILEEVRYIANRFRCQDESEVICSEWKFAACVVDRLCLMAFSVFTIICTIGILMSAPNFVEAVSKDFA
smiles,measurement,value
"CN1C2CCC1CN(c1ccc(C#Cc3ccccc3)nn1)C2 [Compound B1, 8-Methyl-3-(6-phenylethynyl-pyridazin-3-yl)-3,8-diaza-bicyclo[3.2.1]octane]",IC50,470 nM

# — patent US7662812B2, “Diazabicyclic aryl derivatives and their use as chinolinergic ligands at nicotinic acetylcholine receptors” (Neurosearch A/S, priority 2005, dated 2010)
